Legend:
Type in all cases: cell-based
SK-MEL-5 = test: SRB growth assay, 6 days exposure, melanoma; details: SK-MEL-5, 6 days
Description: (§1) Arsenic trioxide (1 mg/ml, 10 mg/ampoule, manufactured by Taylor Pharmaceuticals, Decatur, Ill.) was tested at five concentrations each at 10-fold dilutions, i.e., 10^−5, 10^−6, 10^−7, 10^−8 and 10^−9 μg/ml.
(§2) The in vitro tests were performed by incubating the test cells in the presence of the indicated concentration of arsenic trioxide under standard culture conditions for a designated period of time, which is followed by a sulforhodamine B (SRB) protein assay to estimate cell viability or growth. The cell lines are organized into subpanels according to the origin of the cell lines, e.g., leukemia, breast cancer, etc. A description of the cell lines and method of testing is described in Monk et al. (1997, Anticancer Drug Des. 12:533-41) and Weinstein et al., (1997, Science 275:343-9), which are incorporated herein in their entirety.
(§3) The measurement of an effect is expressed in Percentage Growth (PG). The measured effect of the compound on a cell line is calculated according to one or the other of the following two expressions: If (Mean ODtest−Mean ODzero)≧0. then PG=100×(Mean ODtest−Mean ODzero)/(Mean ODctrl−Mean ODzero) If (Mean ODtest−Mean ODzero)<0. then PG=100×(Mean ODtest−Mean ODzero)/(Mean ODzero where: • Mean ODzero=the average of optical density measurements of SRB-derived color just before exposure of cells to the test compounds; • Mean ODtest=the average of optical density measurements of SRB-derived color after exposure of cells to the test compound for a designated period of time; and • Mean ODctrl=the average of optical density measurements of SRB-derived color after with no exposure of cells to the test compound for a designated period of time
(§4) The first two columns describe the subpanel (e.g., leukemia) and cell line (e.g., CCRF-CEM) involved. The next two columns list the Mean ODzero and Mean ODctrl; the next five columns list the Mean ODtest for each of five different concentrations. Each concentration is expressed as the log10 (molar or μg/ml). The next five columns list the calculated PGs for each concentration. The response parameters GI50, TGI and LC50 are interpolated values representing the concentrations at which the PG is +50, 0, and −50, respectively. Sometimes these response parameters cannot be obtained by interpolation. If, for instance, all of the PGs in a given row exceed +50, then none of the three parameters can be obtained by interpolation. In such a case, the value given for each response parameter is the highest concentration tested and is preceded by a “>” sign. This practice is extended similarly to the other possible situations where a response parameter cannot be obtained by interpolation.
(§5) In the first set, the cells from 56 different cancer cell lines were exposed to five concentrations of arsenic trioxide continuously for two days prior to performing the SRB assay. In the second set, the cells from 50 different cell lines (a subset of the first 56 cell lines, plus the renal cancer cell line 786-0) were exposed continuously for six days prior to the SRB assay.

LOX IMVI = test: SRB growth assay, 6 days exposure, melanoma; details: LOX 1MVI
Description: as §1, §2, §3, §4, §5

MALMI-3M = test: SRB growth assay, 6 days exposure, melanoma
Description: as §1, §2, §3, §4, §5

UACC-62 = test: SRB growth assay, 6 days exposure, melanoma; details: UACC-62, 6 days
Description: as §1, §2, §3, §4, §5

SK-MEL-28 = test: SRB growth assay, 6 days exposure, melanoma; details: SK-MEL-28, 6 days
Description: as §1, §2, §3, §4, §5

SK-MEL-2 = test: SRB growth assay, 6 days exposure, melanoma; details: SK-MEL-2, 6 days
Description: as §1, §2, §3, §4, §5

UACC-257 = test: SRB growth assay, 6 days exposure, melanoma; details: UACC-257, 6 days
Description: as §1, §2, §3, §4, §5

MDA-MB-435 = test: SRB growth assay, 2 days exposure, breast cancer
Description: as §1, §2, §3, §4, §5

NCI/ADR-RES = test: SRB growth assay, 2 days exposure, breast cancer
Description: as §1, §2, §3, §4, §5

arsenic trioxide
TGI (SK-MEL-5): 4.07E−06
Mean Optical Densities (SK-MEL-5; Log 10 Concentration −4.9): 0.013
Percent Growth (SK-MEL-5; Log 10 Concentration −4.9): −93%
Mean Optical Densities (SK-MEL-5; Log 10 Concentration −5.9): 1.846
Percent Growth (SK-MEL-5; Log 10 Concentration −5.9): 96%
Mean Optical Densities (SK-MEL-5; Log 10 Concentration −6.9): 1.929
Percent Growth (SK-MEL-5; Log 10 Concentration −6.9): 101%
Mean Optical Densities (SK-MEL-5; Log 10 Concentration −7.9): 1.864
Percent Growth (SK-MEL-5; Log 10 Concentration −7.9): 97%
Mean Optical Densities (SK-MEL-5; Log 10 Concentration −8.9): 1.935
Percent Growth (SK-MEL-5; Log 10 Concentration −8.9): 102%
TGI (LOX IMVI): 1.32E−07
Mean Optical Densities (LOX IMVI; Log 10 Concentration −4.9): −0.001
Percent Growth (LOX IMVI; Log 10 Concentration −4.9): −100%
Mean Optical Densities (LOX IMVI; Log 10 Concentration −5.9): 0.002
Percent Growth (LOX IMVI; Log 10 Concentration −5.9): −88%
Mean Optical Densities (LOX IMVI; Log 10 Concentration −6.9): 0.053
Percent Growth (LOX IMVI; Log 10 Concentration −6.9): 2%
Mean Optical Densities (LOX IMVI; Log 10 Concentration −7.9): 1.666
Percent Growth (LOX IMVI; Log 10 Concentration −7.9): 77%
Mean Optical Densities (LOX IMVI; Log 10 Concentration −8.9): 2.000
Percent Growth (LOX IMVI; Log 10 Concentration −8.9): 93%
TGI (MALMI-3M): 2.78E−06
Mean Optical Densities (MALMI-3M; Log 10 Concentration −4.9): 0.005
Percent Growth (MALMI-3M; Log 10 Concentration −4.9): −96%
Mean Optical Densities (MALMI-3M; Log 10 Concentration −5.9): 0.383
Percent Growth (MALMI-3M; Log 10 Concentration −5.9): 50%
Mean Optical Densities (MALMI-3M; Log 10 Concentration −6.9): 0.823
Percent Growth (MALMI-3M; Log 10 Concentration −6.9): 132%
Mean Optical Densities (MALMI-3M; Log 10 Concentration −7.9): 0.595
Percent Growth (MALMI-3M; Log 10 Concentration −7.9): 90%
Mean Optical Densities (MALMI-3M; Log 10 Concentration −8.9): 0.702
Percent Growth (MALMI-3M; Log 10 Concentration −8.9): 110%
TGI (UACC-62): 2.27E−06
Mean Optical Densities (UACC-62; Log 10 Concentration −4.9): 0.001
Percent Growth (UACC-62; Log 10 Concentration −4.9): −98%
Mean Optical Densities (UACC-62; Log 10 Concentration −5.9): 0.539
Percent Growth (UACC-62; Log 10 Concentration −5.9): 34%
Mean Optical Densities (UACC-62; Log 10 Concentration −6.9): 1.409
Percent Growth (UACC-62; Log 10 Concentration −6.9): 92%
Mean Optical Densities (UACC-62; Log 10 Concentration −7.9): 1.460
Percent Growth (UACC-62; Log 10 Concentration −7.9): 95%
Mean Optical Densities (UACC-62; Log 10 Concentration −8.9): 1.546
Percent Growth (UACC-62; Log 10 Concentration −8.9): 101%
TGI (SK-MEL-28): 1.86E−06
Percent Growth (SK-MEL-28; Log 10 Concentration −4.9): −100%
Mean Optical Densities (SK-MEL-28; Log 10 Concentration −5.9): 0.488
Percent Growth (SK-MEL-28; Log 10 Concentration −5.9): 20%
Mean Optical Densities (SK-MEL-28; Log 10 Concentration −6.9): 1.797
Percent Growth (SK-MEL-28; Log 10 Concentration −6.9): 88%
Mean Optical Densities (SK-MEL-28; Log 10 Concentration −7.9): 1.906
Percent Growth (SK-MEL-28; Log 10 Concentration −7.9): 94%
Mean Optical Densities (SK-MEL-28; Log 10 Concentration −8.9): 2.012
Percent Growth (SK-MEL-28; Log 10 Concentration −8.9): 99%
TGI (SK-MEL-2): 5.63E−07
Percent Growth (SK-MEL-2; Log 10 Concentration −4.9): −100%
Mean Optical Densities (SK-MEL-2; Log 10 Concentration −5.9): 0.128
Percent Growth (SK-MEL-2; Log 10 Concentration −5.9): −40%
Mean Optical Densities (SK-MEL-2; Log 10 Concentration −6.9): 0.426
Percent Growth (SK-MEL-2; Log 10 Concentration −6.9): 74%
Mean Optical Densities (SK-MEL-2; Log 10 Concentration −7.9): 0.462
Percent Growth (SK-MEL-2; Log 10 Concentration −7.9): 87%
Mean Optical Densities (SK-MEL-2; Log 10 Concentration −8.9): 0.491
Percent Growth (SK-MEL-2; Log 10 Concentration −8.9): 97%
TGI (UACC-257): 5.83E−06
Mean Optical Densities (UACC-257; Log 10 Concentration −4.9): 0.039
Percent Growth (UACC-257; Log 10 Concentration −4.9): −27%
Mean Optical Densities (UACC-257; Log 10 Concentration −5.9): 0.504
Percent Growth (UACC-257; Log 10 Concentration −5.9): 54%
Mean Optical Densities (UACC-257; Log 10 Concentration −6.9): 0.832
Percent Growth (UACC-257; Log 10 Concentration −6.9): 94%
Mean Optical Densities (UACC-257; Log 10 Concentration −7.9): 0.857
Percent Growth (UACC-257; Log 10 Concentration −7.9): 97%
Mean Optical Densities (UACC-257; Log 10 Concentration −8.9): 0.872
Percent Growth (UACC-257; Log 10 Concentration −8.9): 99%
CC50 (UACC-257; read-out: LC50 (the source's name)): > 12.6 µM
TGI (MDA-MB-435): >0.0126 ng/mL
Percent Growth (MDA-MB-435; log10 conc −4.9): 21%
Percent Growth (MDA-MB-435; log10 conc −5.9): 94%
Percent Growth (MDA-MB-435; log10 conc −6.9): 105%
Percent Growth (MDA-MB-435; log10 conc −7.9): 93%
Percent Growth (MDA-MB-435; log10 conc −8.9): 94%
TGI (NCI/ADR-RES): >0.0126 ng/mL
Percent Growth (NCI/ADR-RES; log10 conc −4.9): 45%
Percent Growth (NCI/ADR-RES; log10 conc −5.9): 92%
Percent Growth (NCI/ADR-RES; log10 conc −6.9): 104%
Percent Growth (NCI/ADR-RES; log10 conc −7.9): 99%
Percent Growth (NCI/ADR-RES; log10 conc −8.9): 118%

Reference: patent US6875451B2, “Compositions and methods for the treatment of primary and metastatic neoplastic diseases using arsenic compounds” (PolaRx Biopharmaceuticals Inc., priority 1997, dated 2005)
